In publication PMC10683023, “Targeting Glial Cells by Organic Anion-Transporting Polypeptide 1C1 (OATP1C1)-Utilizing L-Thyroxine-Derived Prodrugs” (Journal of Medicinal Chemistry, 2023):

How the values were obtained:
[1] = Enzymatic bioconversion in mouse liver S9 fraction; type: in vitro ADME; conditions: for Enzymatic stability, remaining percentage, mouse liver S9: after 5 h incubation, 100 μM prodrug; for Enzymatic stability, remaining percentage, mouse liver S9 / half-life at 100 µM: 37 °C, mean ± SD, n = 3; for Bioconversion rate in mouse liver S9 relative to the corresponding T4 derivative: DIT prodrug faster than T4 prodrug; for half-life at 100 µM: mouse, pH 7.4, liver S9 fraction, read-out: Enzymatic bioconversion half-life t1/2, mouse liver
Protocol: (§1) The rates of bioactivation of the prodrugs 1–8 in mouse and human liver S9 fractions, as well as in mouse primary astrocyte–microglia homogenate, were determined at +37 °C. The incubation mixtures were prepared by mixing liver S9 subcellular fraction or brain cell homogenate (final protein concentration 1.0 mg/mL) with isotonic Tris–HCl buffer (pH 7.4) and 10 mM prodrug stock solution in DMSO (the initial concentration of prodrugs was 100 μM and the DMSO concentration was […]). The mixture was incubated for 5 h, and the samples ([…]) were withdrawn at appropriate intervals. The enzymatic reaction was terminated by the addition of ice-cold acetonitrile ([…]), and the samples were centrifuged for 5 min at 12 000 rpm at room temperature and kept on ice until the supernatants were analyzed by the HPLC method described below. In blank reactions, the S9 fractions were replaced with the same volume of buffer. The pseudo-first-order half-lives (t1/2) for the rates of bioconversion of the prodrugs were calculated from the slope of the linear portion of the plotted logarithm of the remaining prodrug concentration versus time. The rates of bioactivation of prodrugs 1–8 in human plasma and mouse serum were determined at 37 °C as above by adding 10 mM stock solution of the prodrug to plasma/serum in a ratio of 1:10 and analyzed similarly to the samples from S9 fractions.
(§2) The amount of prodrug 1–8 was determined by the HPLC system, which consisted of an Agilent 1100 binary pump (Agilent Technologies Inc., Wilmington, DE), an 1100 micro vacuum degasser, an HP 1050 Autosampler, and an HP 1050 variable wavelength detector, operated at 230–240 nm. The chromatographic separations were achieved on an Agilent Zorbax SB-C18 analytical column (4.4 mm × 150 mm, 5 μm) (Agilent Technologies Inc., Wilmington, DE) by using isocratic elution of water containing 0.1% formic acid (pH ca. 3.0) and acetonitrile containing 0.1% formic acid with ratios of 50:50, 30:70, 40:60, 50:50, 50:50, 40:60, 40:60, and 30:70 (v/v), respectively, for prodrug 1–8. […] The lower limit of quantification for prodrugs 1–8 was 0.20 μM. These HPLC methods were also accurate, precise, and selective over the range of 0.5–20 μM.

[2] = Enzymatic bioconversion in human liver S9 fraction; type: in vitro ADME; conditions: for Enzymatic stability, remaining percentage, human liver S9: after 5 h incubation, 100 μM prodrug
Protocol: as §1, §2

[3] = Enzymatic bioconversion in mouse serum; type: in vitro ADME; conditions: for Enzymatic stability, remaining percentage, mouse serum: after 5 h incubation
Protocol: as §1, §2

[4] = Enzymatic bioconversion in human plasma; type: in vitro ADME; conditions: after 5 h incubation, 37 °C, mean ± SD, n = 3
Protocol: as §1, §2

[5] = molecular target: T1, OATP1C1 (Homo sapiens, UniProt Q9NYB5); assay: Competitive uptake into U-87MG cells in the presence of OATP1C1 inhibitors diclofenac and flufenamic acid; type: cell-based; conditions: 100 μM prodrug; for Reduction of cellular uptake by DCF: 100 μM diclofenac; for Cellular uptake in the presence of OATP1C1 inhibitors (DCF and FFA): 100 μM inhibitor, result in words
T1 construct: human U-87MG cells that expressed OATP1C1, but not other OATPs; endogenous in cells; host or cells: U-87MG human glioma cells
T1 sequence (Q9NYB5 1-712): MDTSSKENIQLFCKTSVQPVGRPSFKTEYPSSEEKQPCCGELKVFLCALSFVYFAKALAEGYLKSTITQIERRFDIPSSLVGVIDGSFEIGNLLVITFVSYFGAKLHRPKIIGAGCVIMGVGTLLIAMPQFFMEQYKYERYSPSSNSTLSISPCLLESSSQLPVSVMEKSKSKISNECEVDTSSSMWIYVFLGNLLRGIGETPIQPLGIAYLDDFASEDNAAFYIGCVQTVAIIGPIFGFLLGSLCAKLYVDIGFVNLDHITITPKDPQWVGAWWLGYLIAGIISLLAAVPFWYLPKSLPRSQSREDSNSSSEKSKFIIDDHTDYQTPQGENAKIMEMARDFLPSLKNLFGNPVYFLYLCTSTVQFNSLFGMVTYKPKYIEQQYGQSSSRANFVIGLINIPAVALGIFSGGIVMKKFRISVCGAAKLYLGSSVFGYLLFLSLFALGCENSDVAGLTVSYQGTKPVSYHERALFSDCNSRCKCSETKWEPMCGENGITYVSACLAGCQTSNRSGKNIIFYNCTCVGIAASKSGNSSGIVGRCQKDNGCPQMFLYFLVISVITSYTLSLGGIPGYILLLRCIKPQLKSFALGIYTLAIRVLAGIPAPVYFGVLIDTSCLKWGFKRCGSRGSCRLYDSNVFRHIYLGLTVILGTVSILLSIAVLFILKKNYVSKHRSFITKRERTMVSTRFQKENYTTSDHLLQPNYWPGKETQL
Protocol: The competitive uptake in the presence of OATP-inhibitors or competing substrates (100 μM), diclofenac (DFC) and flufenamic acid (FFA), for OATP1C1 and naringin (NRG) for OATP1A2 was carried out as described above with HBSS buffer at pH 7.4 containing 100 μM of the studied compound. The cells were preincubated with the inhibitors for 10 min, and the incubation mixture was removed before adding the studied compound and the inhibitor to the cells. The competitive uptake (30 min) with the inhibitor was then carried out as the normal uptake described above. The concentrations of the studied compounds were analyzed by the HPLC methods described below, calculated from the spiked standard curve, and normalized with the protein concentrations.
as §2

| Structure (SMILES) | Enzymatic stability, remaining percentage, mouse liver S9 [1] [%] | Enzymatic stability, remaining percentage, human liver S9 ([2]; 37 °C, mean ± SD, n = 3) [%] | Enzymatic stability, remaining percentage, mouse serum ([3]; 37 °C, mean ± SD, n = 3) [%] | Enzymatic stability, remaining percentage, human plasma [4] [%] | Reduction of cellular uptake by DCF [5] | Cellular uptake in the presence of OATP1C1 inhibitors (DCF and FFA) [5] | inhibition at 30 min, 100 μM ([5]; human, pH 7.4, with flufenamic acid (FFA) 100 μM, 100 μM flufenamic acid, read-out: Inhibition of cellular uptake by FFA) [%] | Bioconversion rate in mouse liver S9 relative to the corresponding T4 derivative [1] | half-life at 100 µM [1] [h] | Bioconversion rate in human liver, slower than that of prodrug 6 [2] | Bioconversion rate in mouse serum relative to human plasma ([3]; higher in mouse serum) [times] | half-life at 1 mM ([3]; mouse, serum, 37 °C, mean ± SD, n = 3, read-out: Enzymatic bioconversion half-life t1/2, mouse serum) [h] | Bioconversion rate in human liver relative to the corresponding T4 derivative ([2]; DIT prodrug faster than T4 prodrug) [times] | half-life at 100 µM ([2]; human, pH 7.4, liver S9 fraction, 37 °C, mean ± SD, n = 3, read-out: Enzymatic bioconversion half-life t1/2, human liver) [h] |
| --- | --- | --- | --- | --- | --- | --- | --- | --- | --- | --- | --- | --- | --- | --- |
| CC(C(=O)Oc1c(I)cc(Oc2c(I)cc(C[C@H](N)C(=O)O)cc2I)cc1I)c1cccc(C(=O)c2ccccc2)c1 (mixture of isomers) [Prodrug 2, (2S)-2-Amino-3-(4-(4-((2-(3-benzoylphenyl)propanoyl)oxy)-3,5-diiodophenoxy)-3,5-diiodophenyl)propanoic acid] | 87.59 ± 1.20 | 85.71 ± 4.27 | 98.79 ± 1.21 | 96.47 ± 3.53 | ca. 56% | reduced more effectively compared to prodrug 1 | ~42 |  |  |  |  |  |  |  |
| COc1ccc2cc([C@H](C)C(=O)Oc3c(I)cc(C[C@H](N)C(=O)O)cc3I)ccc2c1 [Prodrug 5, (S)-2-Amino-3-(3,5-diiodo-4-(((S)-2-(6-methoxynaphthalen-2-yl)propanoyl)oxy)phenyl)propanoic acid] | 38.26 ± 4.49 | 69.44 ± 2.10 | 96.75 ± 3.25 | 70.94 ± 29.06 | 25% | affected by DCF but not by FFA |  | 2 times | 4.15 ± 0.761 | around 10% |  |  |  |  |
| N[C@@H](Cc1cc(I)c(Oc2cc(I)c(OC(=O)c3ccccc3O)c(I)c2)c(I)c1)C(=O)O [Prodrug 4, (S)-2-Amino-3-(4-(4-((2-hydroxybenzoyl)oxy)-3,5-diiodophenoxy)-3,5-diiodophenyl)propanoic acid] | 69.18 ± 0.81 | 84.00 ± 3.90 | 96.79 ± 3.21 | 97.17 ± 2.83 |  | slightly increased |  |  |  |  |  |  |  |  |
| COc1ccc2cc([C@H](C)C(=O)Oc3c(I)cc(Oc4c(I)cc(C[C@H](N)C(=O)O)cc4I)cc3I)ccc2c1 [Prodrug 6, (S)-2-Amino-3-(4-(3,5-diiodo-4-(((S)-2-(6-methoxynaphthalen-2-yl)propanoyl)oxy)phenoxy)-3,5-diiodophenyl)propanoic acid] | 78.10 ± 1.88 | 78.70 ± 3.74 | 98.33 ± 1.67 | 96.32 ± 3.68 | 75% | affected by DCF but not by FFA |  |  |  |  |  |  |  |  |
| N[C@@H](Cc1cc(I)c(OC(=O)c2ccccc2O)c(I)c1)C(=O)O [Prodrug 3, (S)-2-Amino-3-(4-((2-hydroxybenzoyl)oxy)-3,5-diiodophenyl)propanoic acid] | 99.06 ± 0.94 | 96.84 ± 3.16 | 14.40 ± 0.60 | 68.94 ± 2.01 |  | not affected significantly |  |  |  |  | 5 | 1.39 ± 0.49 |  |  |
| CC(C(=O)Oc1c(I)cc(C[C@H](N)C(=O)O)cc1I)c1ccc(-c2ccccc2)c(F)c1 (mixture of isomers) [Prodrug 7, (2S)-2-Amino-3-(4-((2-(2-fluoro-[1,1′-biphenyl]-4-yl)propanoyl)oxy)-3,5-diiodophenyl)propanoic acid] | 25.19 ± 6.22 | 30.54 ± 3.21 | 94.89 ± 5.11 | 90.52 ± 9.48 |  | significantly reduced |  | around 3 times | 2.69 ± 0.429 |  |  |  | ~2.5 | 2.91 ± 0.25 |
| CC(C(=O)Oc1c(I)cc(Oc2c(I)cc(C[C@H](N)C(=O)O)cc2I)cc1I)c1ccc(-c2ccccc2)c(F)c1 (mixture of isomers) [Prodrug 8, (2S)-2-Amino-3-(4-(4-((2-(2-fluoro-[1,1′-biphenyl]-4-yl)propanoyl)oxy)-3,5-diiodophenoxy)-3,5-diiodophenyl)propanoic acid] | 84.32 ± 0.99 | 80.17 ± 2.23 | 96.79 ± 3.21 | 97.17 ± 2.83 |  | significantly reduced |  |  |  |  |  |  |  |  |
